Results reported in PubChem BioAssay (NCI).
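Step 1: Grow cells in 96-well plates. Step 2: Expose to compound for 48 hours at 5 concentrations. Step 3: Interpolate endpoints linearly; if unreached, use highest concentration. The concentration for 50% growth inhibition is given as GI50. The concentration for full growth arrest is given as TGI.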

How the values were obtained:
Assay in all cases: growth of human tumour cells (NCI), 48 h
[1] = system: 786-0 renal
[2] = system: A498 renal
[3] = system: A549 NSCLC
[4] = system: ACHN renal
[5] = system: BT-549 breast
[6] = system: CAKI-1 renal
[7] = system: CCRF-CEM leukemia
[8] = system: COLO 205 colon
[9] = system: DU-145 prostate
[10] = system: HCC-2998 colon
[11] = system: HCT-116 colon
[12] = system: HCT-15 colon
[13] = system: HL-60(TB) leukemia
[14] = system: HOP-62 NSCLC
[15] = system: HOP-92 NSCLC
[16] = system: HS 578T breast
[17] = system: HT29 colon
[18] = system: IGROV1 ovarian
[19] = system: K-562 leukemia
[20] = system: KM12 colon
[21] = system: LOX IMVI melanoma
[22] = system: M14 melanoma
[23] = system: MALME-3M melanoma
[24] = system: MCF7 breast
[25] = system: MDA-MB-231 breast
[26] = system: MDA-MB-435
[27] = system: MOLT-4 leukemia
[28] = system: NCI-H226 lung
[29] = system: NCI-H460 lung
[30] = system: NCI-H522 lung
[31] = system: NCI/ADR-RES ovarian
[32] = system: OVCAR-3 ovarian
[33] = system: OVCAR-4 ovarian
[34] = system: OVCAR-5 ovarian
[35] = system: OVCAR-8 ovarian
[36] = system: RPMI-8226 leukemia
[37] = system: RXF 393 renal
[38] = system: SF-268 CNS
[39] = system: SF-295 CNS
[40] = system: SF-539 CNS
[41] = system: SK-MEL-2 melanoma
[42] = system: SK-MEL-28 melanoma
[43] = system: SK-MEL-5 melanoma
[44] = system: SK-OV-3 ovarian
[45] = system: SN12C renal
[46] = system: SNB-19 CNS
[47] = system: SNB-75 CNS
[48] = system: SR leukemia
[49] = system: SW-620 colon
[50] = system: T-47D breast
[51] = system: TK-10 renal
[52] = system: U251 CNS
[53] = system: UACC-257 melanoma
[54] = system: UO-31 renal
[55] = system: EKVX NSCLC
[56] = system: NCI-H23 lung
[57] = system: PC-3 prostate
[58] = system: UACC-62 melanoma

SMILES: CCOC(=O)N1CCN(c2nc(Nc3cc(C)[nH]n3)c3ccccc3n2)CC1
- GI50 [1]: 1.95 µM
- TGI [1]: 14.2 µM
- GI50 [2]: 0.423 µM
- TGI [2]: 2.78 µM
- GI50 [3]: 7.6 µM
- TGI [3]: 28.8 µM
- GI50 [4]: 0.707 µM
- TGI [4]: > 100 µM
- GI50 [5]: 3.85 µM
- TGI [5]: 16.2 µM
- GI50 [6]: 0.97 µM
- TGI [6]: 17.8 µM
- GI50 [7]: 10.1 µM
- TGI [7]: 56.2 µM
- GI50 [8]: 1.83 µM
- TGI [8]: 5.41 µM
- GI50 [9]: 3.89 µM
- TGI [9]: 40 µM
- GI50 [10]: 11.7 µM
- TGI [10]: 48.7 µM
- GI50 [11]: 2.13 µM
- TGI [11]: 21.3 µM
- GI50 [12]: 0.992 µM
- TGI [12]: > 100 µM
- GI50 [13]: 12 µM
- TGI [13]: 34.1 µM
- GI50 [14]: 2.81 µM
- TGI [14]: > 100 µM
- GI50 [15]: 1.92 µM
- TGI [15]: 11.9 µM
- GI50 [16]: 1.16 µM
- TGI [16]: 5.42 µM
- GI50 [17]: 2.49 µM
- TGI [17]: 21.2 µM
- GI50 [18]: 0.638 µM
- TGI [18]: 35.5 µM
- GI50 [19]: 2.94 µM
- TGI [19]: > 100 µM
- GI50 [20]: 0.479 µM
- TGI [20]: 23.1 µM
- GI50 [21]: 1.86 µM
- TGI [21]: 10.1 µM
- GI50 [22]: 9.16 µM
- TGI [22]: 28.9 µM
- GI50 [23]: 21.9 µM
- TGI [23]: 62.2 µM
- GI50 [24]: 4.61 µM
- TGI [24]: > 100 µM
- GI50 [25]: 4.97 µM
- TGI [25]: 81.6 µM
- GI50 [26]: 0.829 µM
- TGI [26]: 62.3 µM
- GI50 [27]: 15.5 µM
- TGI [27]: 42.7 µM
- GI50 [28]: 1.58 µM
- TGI [28]: 10.8 µM
- GI50 [29]: 4.42 µM
- TGI [29]: 26.4 µM
- GI50 [30]: 2.82 µM
- TGI [30]: 30.7 µM
- GI50 [31]: 4.25 µM
- TGI [31]: 37 µM
- GI50 [32]: 7.69 µM
- TGI [32]: 37.3 µM
- GI50 [33]: 4.04 µM
- TGI [33]: > 100 µM
- GI50 [34]: 3.25 µM
- TGI [34]: > 100 µM
- GI50 [35]: 8.63 µM
- TGI [35]: 63.2 µM
- GI50 [36]: 3.4 µM
- TGI [36]: 13.6 µM
- GI50 [37]: 1.11 µM
- TGI [37]: 5.01 µM
- GI50 [38]: 3.54 µM
- TGI [38]: 39 µM
- GI50 [39]: 5.98 µM
- TGI [39]: > 100 µM
- GI50 [40]: 1.92 µM
- TGI [40]: 9.7 µM
- GI50 [41]: 0.737 µM
- TGI [41]: 55.5 µM
- GI50 [42]: 12.2 µM
- TGI [42]: 91.3 µM
- GI50 [43]: 7.94 µM
- TGI [43]: 21.4 µM
- GI50 [44]: 2.62 µM
- TGI [44]: 34.3 µM
- GI50 [45]: 2.24 µM
- TGI [45]: 52 µM
- GI50 [46]: 10.3 µM
- TGI [46]: > 100 µM
- GI50 [47]: 0.727 µM
- TGI [47]: 5.66 µM
- GI50 [48]: 0.446 µM
- TGI [48]: 20.2 µM
- GI50 [49]: 2.1 µM
- TGI [49]: 45.2 µM
- GI50 [50]: 4.83 µM
- TGI [50]: 70.7 µM
- GI50 [51]: 0.909 µM
- TGI [51]: 35.1 µM
- GI50 [52]: 2.13 µM
- TGI [52]: 23.5 µM
- GI50 [53]: 16.3 µM
- TGI [53]: 52.6 µM
- GI50 [54]: 0.854 µM
- TGI [54]: 24.6 µM

SMILES: COc1ccc2c(C)cc(N/N=C/c3ccc(OC)c4ccccc34)nc2c1
- TGI [1]: 26.4 µM
- TGI [3]: 34.8 µM
- TGI [4]: 15.8 µM
- TGI [5]: 46.2 µM
- TGI [6]: 26.9 µM
- TGI [7]: 7.47 µM
- TGI [8]: 42 µM
- TGI [9]: 16.4 µM
- TGI [55]: 35.1 µM
- TGI [11]: 18.1 µM
- TGI [12]: 23.4 µM
- TGI [13]: 49.3 µM
- TGI [14]: 34.4 µM
- TGI [15]: 25.4 µM
- TGI [16]: 32.8 µM
- TGI [17]: 32.7 µM
- TGI [18]: 29.3 µM
- TGI [19]: 32.3 µM
- TGI [20]: 29.6 µM
- TGI [21]: 12.3 µM
- TGI [22]: 31.9 µM
- TGI [23]: 36.3 µM
- TGI [24]: 44.6 µM
- TGI [25]: 17.4 µM
- TGI [26]: 24.1 µM
- TGI [27]: 52.9 µM
- TGI [28]: 29.6 µM
- TGI [56]: 32.8 µM
- TGI [29]: 41.1 µM
- TGI [30]: 26.7 µM
- TGI [31]: 32.7 µM
- TGI [32]: 9.02 µM
- TGI [33]: 45.1 µM
- TGI [34]: 29.1 µM
- TGI [35]: 39.6 µM
- TGI [57]: 34.1 µM
- TGI [36]: 8.64 µM
- TGI [37]: 39.8 µM
- TGI [38]: 32.6 µM
- TGI [39]: 32 µM
- TGI [40]: 30.6 µM
- TGI [41]: 37.2 µM
- TGI [42]: 31.6 µM
- TGI [43]: 30.3 µM
- TGI [44]: 33.8 µM
- TGI [45]: 5.52 µM
- TGI [46]: 41.9 µM
- TGI [47]: 42.2 µM
- TGI [48]: 22.3 µM
- TGI [49]: 22.2 µM
- TGI [50]: 24.1 µM
- TGI [51]: 31.8 µM
- TGI [52]: 13.2 µM
- TGI [53]: 36.9 µM
- TGI [58]: 28.3 µM
- TGI [54]: 25.6 µM
